The test system of one data set is KB. As to the kind of experiment: Antiproliferative activity against human KB cells. The class given is functional, cell-based.
In the next data set the test system is HepG2. The data set can be described thus: Antiproliferative activity against human HepG2 cells. In kind it is functional, cell-based.
The subject of the next data set is A549. The data set can be described thus: Antiproliferative activity against human A549 cells. The class given is functional, cell-based.
A short description of data set [1]: Cytotoxicity against human HEK293 cells. The class given is toxicity, cell-based.
Data set [2] is described as follows: Selectivity ratio of IC50 for human HEK293 cells to IC50 for human KB cells. The class given is toxicity. The conditions noted are these: HEK293 cells versus KB cells, read-out: Ratio IC50.
A short description of data set [3]: Selectivity ratio of IC50 for human HEK293 cells to IC50 for human HepG2 cells. In kind it is toxicity. Particulars: HEK293 cells versus HepG2 cells, read-out: Ratio IC50.
A short description of data set [4]: Selectivity ratio of IC50 for human HEK293 cells to IC50 for human A549 cells. In kind it is toxicity. Particulars: HEK293 cells versus A549 cells, read-out: Ratio IC50.

Some results are limits rather than exact numbers.

Regarding `C[C@@H]1CC[C@H]2[C@@H](C)C(=O)N(Cc3cn(-c4ccc(Br)cc4)nn3)[C@@H]3O[C@@]4(C)CC[C@@H]1[C@@]23OO4`, the half-inhibitory concentration (IC50) in the data set with KB was 26.4 µM; with HepG2, 34.9 µM; in the data set on A549, 45.9 µM.
For `C[C@@H]1CC[C@H]2[C@@H](C)C(=O)N(Cc3cn(-c4cccc(F)c4)nn3)[C@@H]3O[C@@]4(C)CC[C@@H]1[C@@]23OO4`, in that order: greater than 280 µM, greater than 280 µM and greater than 280 µM.
For `C[C@@H]1CC[C@H]2[C@@H](C)C(=O)N(Cc3cn(-c4cccc(Br)c4)nn3)[C@@H]3O[C@@]4(C)CC[C@@H]1[C@@]23OO4`, the IC50 was 7.7 µM in the data set with KB, 42.5 µM with HepG2, 15.5 µM in the data set on A549 and greater than 247 µM in data set [1]. Besides, the selectivity ratio is 32 in data set [2], 6 in data set [3] and 16 in data set [4].
Take `C[C@@H]1CC[C@H]2[C@@H](C)C(=O)N(Cc3cn(-c4ccc(I)cc4)nn3)[C@@H]3O[C@@]4(C)CC[C@@H]1[C@@]23OO4`: the half-maximal inhibitory concentration (IC50) worked out at 10.3 µM in the data set with KB, 31.3 µM with HepG2, 9.2 µM in the data set on A549 and 12.4 µM in data set [1].
For the compound `C[C@@H]1CC[C@H]2[C@@H](C)C(=O)N(Cc3cn(-c4ccccc4Br)nn3)[C@@H]3O[C@@]4(C)CC[C@@H]1[C@@]23OO4`, the IC50 came to 32.3 µM in the data set with KB, 42.5 µM in the data set with HepG2 and 32.9 µM with A549.
The matching figures for `C[C@@H]1CC[C@H]2[C@@H](C)C(=O)N(Cc3cn(-c4cccc(Cl)c4)nn3)[C@@H]3O[C@@]4(C)CC[C@@H]1[C@@]23OO4`: 235 µM, 215 µM and 151 µM.
For the compound `C[C@@H]1CC[C@H]2[C@@H](C)C(=O)N(Cc3cn(-c4cccc(I)c4)nn3)[C@@H]3O[C@@]4(C)CC[C@@H]1[C@@]23OO4`, the IC50 came to 10.6 µM in the data set on KB, 9.4 µM with HepG2, 135 µM in the data set on A549 and 46.3 µM in data set [1]. In addition, the selectivity ratio came out at 4 in data set [2] and 5 in data set [3].
Turning to `C[C@@H]1CC[C@H]2[C@@H](C)C(=O)N(Cc3cn(-c4ccccc4I)nn3)[C@@H]3O[C@@]4(C)CC[C@@H]1[C@@]23OO4`, the IC50 in the data set with KB came to 34.1 µM; with HepG2, 49.3 µM; with A549, 27.7 µM.
As for `Cc1c2ccncc2c(C)c2c1[nH]c1ccccc12` [ELLIPTECINE], the IC50 with KB came to 1.7 µM; in the data set on HepG2 it was 1.7 µM; in the data set with A549 it was 1.7 µM; in data set [1], 6.3 µM.
